The text below walks through data of patent US20130210809A1, “NOVEL 2-AMINO-4-PYRAZOLYL-THIAZOLE DERIVATIVES AND THEIR USE AS ALLOSTERIC MODULATORS OF METABOTROPIC GLUTAMATE RECEPTORS” (priority 2010, published 2013).

Data set [1] concerns the target T1, recombinant human mGluR4a receptors (Homo sapiens, UniProt Q14833).
T1 construct: expressed in transfected cells
The experiment in a line: mGluR4 assay on HEK-expressing human mGluR4 (fluorescent cell based Ca2+ mobilization assay, FLIPR). Particulars: HEK-293 cells expressing hmGluR4; enhancement of EC25 glutamate response; mean of at least three independent experiments in duplicate; read-out: Ca^2+ Flux (mean EC50). The source says: mGluR4 Assay on HEK-Expressing Human mGluR4
The compounds of the present invention are positive allosteric modulators of mGluR4 receptor. Their activity was examined on recombinant human mGluR4a receptors by detecting changes in intracellular Ca^2+ concentration, using the fluorescent Ca^2+-sensitive dye Fluo4-(AM) and a Fluorometric Imaging Plate Reader (FLIPR, Molecular Devices, Sunnyvale, Calif.).
The cDNA encoding the human metabotropic glutamate receptor (hmGluR4), (accession number NM_000841.1, NCBI Nucleotide database browser), was subcloned into an expression vector containing also the Hygromycin resistance gene. In parallel, the cDNA encoding a G protein allowing redirection of the activation signal to intracellular calcium flux was subcloned into a different expression vector containing also the Puromycin resistance gene. Transfection of both these vectors into HEK293 cells with PolyFect reagent (Qiagen) according to supplier's protocol, and hygromycin and puromycin treatment allowed selection of antibiotic resistant cells which had integrated stably one or more copies of the plasmids. Positive cellular clones expressing hmGluR4 were identified in a functional assay measuring changes in calcium flux in response to glutamate or selective known mGluR4 orthosteric agonists and antagonists. HEK-293 cells expressing hmGluR4 were maintained in media containing DMEM, dialyzed Fetal Calf Serum (10%), Glutamax™ (2 mM), Penicillin (100 units/mL), Streptomycin (100 μg/mL), Geneticin (100 μg/mL) and Hygromycin-B (40 μg/mL) and Puromycin (1 μg/mL) at 37° C./5% CO2.
Human mGluR4 HEK-293 cells were plated out 24 hours prior to FLIPR^384 assay in black-walled, clear-bottomed, poly-L-ornithine-coated 384-well plates at a density of 25,000 cells/well in a glutamine/glutamate free DMEM medium containing foetal bovine serum (10%), penicillin (100 units/mL) and streptomycin (100 μg/mL) at 37° C./5% CO2.
On the day of the assay, the medium was aspirated and the cells were loaded with a 3 μM solution of Fluo4-AM (LuBioScience, Lucerne, Switzerland) in 0.03% pluronic acid. After 1 hour at 37° C./5% CO2, the non incorporated dye was removed by washing cell plate with the assay buffer and the cells were left in the dark at it for six hours before testing. All assays were performed in a pH 7.4 buffered-solution containing 20 mM HEPES, 143 mM NaCl, 6 mM KCl, 1 mM MgSO4, 1 mM CaCl2, 0.125 mM sulfapyrazone and 0.1% glucose.
After 10 s of basal fluorescence recording, various concentrations of the compounds of the invention were added to the cells. Changes in fluorescence levels were first monitored for 180 s in order to detect any agonist activity of the compounds. Then the cells were stimulated by an EC25 glutamate concentration for an additional 110 s in order to measure enhancing activities of the compounds of the invention. EC25 glutamate concentration is the concentration giving 25% of the maximal glutamate response.
The concentration-response curves of representative compounds of the present invention were generated using the Prism GraphPad software (Graph Pad Inc, San Diego, USA). The curves were fitted to a four-parameter logistic equation:
(Y=Bottom+(Top−Bottom)/(1+10̂((Log EC50-X)*Hill Slope)
allowing the determination of EC50 values.
The Table 3 below represents the mean EC50 obtained from at least three independent experiments of selected molecules performed in duplicate.
A general note: A change in cytosolic calcium serves as a functional read-out for many receptors and channels.

A value given as a limit tells only on which side of the number the result lay.

T1 sequence (Q14833 33-912): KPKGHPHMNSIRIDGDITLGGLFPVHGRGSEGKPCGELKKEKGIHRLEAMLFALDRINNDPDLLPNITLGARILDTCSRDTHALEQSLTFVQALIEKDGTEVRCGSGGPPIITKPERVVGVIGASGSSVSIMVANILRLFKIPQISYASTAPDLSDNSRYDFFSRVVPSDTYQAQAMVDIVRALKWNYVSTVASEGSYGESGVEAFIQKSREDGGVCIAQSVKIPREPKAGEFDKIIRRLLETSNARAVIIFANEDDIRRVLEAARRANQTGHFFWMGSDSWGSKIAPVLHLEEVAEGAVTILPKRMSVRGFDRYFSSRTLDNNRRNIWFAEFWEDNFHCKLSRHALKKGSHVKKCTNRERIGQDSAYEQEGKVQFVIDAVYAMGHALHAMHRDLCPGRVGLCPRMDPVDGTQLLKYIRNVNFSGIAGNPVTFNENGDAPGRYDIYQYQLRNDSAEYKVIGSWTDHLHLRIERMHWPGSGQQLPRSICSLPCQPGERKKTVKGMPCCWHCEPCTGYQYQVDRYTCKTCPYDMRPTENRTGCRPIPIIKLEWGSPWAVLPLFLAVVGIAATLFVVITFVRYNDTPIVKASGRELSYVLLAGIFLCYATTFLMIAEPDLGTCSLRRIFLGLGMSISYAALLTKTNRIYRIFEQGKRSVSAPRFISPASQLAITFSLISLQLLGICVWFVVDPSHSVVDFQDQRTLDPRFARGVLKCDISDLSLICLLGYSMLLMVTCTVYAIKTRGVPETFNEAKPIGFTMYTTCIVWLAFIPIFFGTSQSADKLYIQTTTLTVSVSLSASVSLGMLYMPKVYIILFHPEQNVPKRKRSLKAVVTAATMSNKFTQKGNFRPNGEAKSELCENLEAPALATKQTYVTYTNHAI

`COc1ccc(F)cc1-c1n[nH]cc1-c1csc(Nc2nccc(C)n2)n1` [Compound 1-5, 4-(3-(5-Fluoro-2-methoxyphenyl)-1H-pyrazol-4-yl)-N-(4-methylpyrimidin-2-yl)thiazol-2-amine]: the melting point (in general, the temperature of the solid-liquid transition) was determined as 247 °C. The concentration for a half-maximal effect (EC50) (usually the concentration at which the effect is half-maximal) in data set [1] lay in the range of 0.1 to 1 µM. For `Cc1ccnc(Nc2nc(-c3c[nH]nc3C(=O)c3ccccc3)cs2)n1` [Compound 1-25, (4-(2-(4-Methylpyrimidin-2-ylamino)thiazol-4-yl)-1H-pyrazol-3-yl)(phenyl)methanone], the melting point was in the range of 254 to 255 °C. As for `Cc1ccnc(Nc2nc(-c3c[nH]nc3C(O)c3ccccc3)cs2)n1` (stereo not drawn) [Compound 1-26, (4-(2-(4-Methylpyrimidin-2-ylamino)thiazol-4-yl)-1H-pyrazol-3-yl)(phenyl)methanol], the melting point turned out to be 249.5 °C. Besides, the EC50 in data set [1] was 1 to 10 µM. The matching figures for `Cc1ccnc(Nc2nc(-c3cn[nH]c3C(=O)C3CC3)cs2)n1` [Compound 1-27, Cyclopropyl(4-(2-(4-methylpyrimidin-2-ylamino)thiazol-4-yl)-1H-pyrazol-5-yl)methanone]: 239 to 240 °C and 0.1 to 1 µM. `Cc1ccnc(Nc2nc(-c3c[nH]nc3-c3cccc(N(C)C)c3)cs2)n1` [Compound 1-30, 4-(3-(3-(Dimethylamino)phenyl)-1H-pyrazol-4-yl)-N-(4-methylpyrimidin-2-yl)thiazol-2-amine] showed a melting point of 239 to 241 °C. Further, in data set [1], the EC50 lay in the range of 1 to 10 µM.

With `Cc1ccnc(Nc2nc(-c3cn[nH]c3-c3cccc(C#N)c3F)cs2)n1` [Compound 1-35, 2-Fluoro-3-(4-(2-(4-methylpyrimidin-2-ylamino)thiazol-4-yl)-1H-pyrazol-5-yl)benzonitrile], the EC50 in data set [1] is less than 0.1 µM. Still for that read-out and setting: for `COCc1n[nH]cc1-c1csc(Nc2ncc(F)cn2)n1` [Compound 1-37, N-(5-Fluoropyrimidin-2-yl)-4-(3-(methoxymethyl)-1H-pyrazol-4-yl)thiazol-2-amine] the value was 1 to 10 µM; for `CCc1ccnc(Nc2nc(-c3c[nH]nc3COC)cs2)n1` [Compound 1-38, N-(4-Ethylpyrimidin-2-yl)-4-(3-(methoxymethyl)-1H-pyrazol-4-yl)thiazol-2-amine], 1 to 10 µM; for `COC(=O)N1CC=C(c2n[nH]cc2-c2csc(Nc3nccc(C)n3)n2)C1` [Compound 1-39, Methyl 3-(4-(2-(4-methylpyrimidin-2-ylamino)thiazol-4-yl)-1H-pyrazol-3-yl)-2,5-dihydro-1H-pyrrole-1-carboxylate], 0.1 to 1 µM. Take `CC(=O)N1CC=C(c2n[nH]cc2-c2csc(Nc3nccc(C)n3)n2)CC1` [Compound 1-40, 1-(4-(4-(2-(4-Methylpyrimidin-2-ylamino)thiazol-4-yl)-1H-pyrazol-3-yl)-5,6-dihydropyridin-1(2H)-yl)ethanone]: in data set [1], the EC50 was 1 to 10 µM. The same measure, in the same setting: the same measure for `COC(=O)N1CC=C(c2n[nH]cc2-c2csc(Nc3nccc(C)n3)n2)CC1` [Compound 1-41, Methyl 4-(4-(2-(4-methylpyrimidin-2-ylamino)thiazol-4-yl)-1H-pyrazol-3-yl)-5,6-dihydropyridine-1 (2H)-carboxylate]: 1 to 10 µM. Turning to `Cc1ccnc(Nc2nc(-c3c[nH]nc3-c3cccc(N4CCC(O)C4)c3)cs2)n1` (stereo not drawn) [Compound 1-42, 1-(3-(4-(2-(4-Methylpyrimidin-2-ylamino)thiazol-4-yl)-1H-pyrazol-3-yl)phenyl)pyrrolidin-3-ol], the EC50 in data set [1] was 0.1 to 1 µM. In the case of `Cc1nc(Nc2nc(-c3cn[nH]c3)c(C#N)s2)ns1` [Compound 1-44, 2-(5-Methyl-1,2,4-thiadiazol-3-ylamino)-4-(1H-pyrazol-4-yl)thiazole-5-carbonitrile], the EC50 in data set [1] is less than 0.1 µM.

For `N#Cc1sc(Nc2nccnn2)nc1-c1cn[nH]c1` [Compound 1-45, 2-(1,2,4-Triazin-3-ylamino)-4-(1H-pyrazol-4-yl)thiazole-5-carbonitrile], the EC50 in data set [1] was in the range of 0.1 to 1 µM. In turn, `CC(=O)c1sc(Nc2nccc(C)n2)nc1-c1cn[nH]c1` [Compound 1-46, 1-(2-(4-Methylpyrimidin-2-ylamino)-4-(1H-pyrazol-4-yl)thiazol-5-yl)ethanone] registered a melting point of 288 to 291 °C. The EC50 in data set [1] was in the range of 0.1 to 1 µM. With `CCOc1sc(Nc2nccc(C)n2)nc1-c1cn[nH]c1` [Compound 1-47, 5-Ethoxy-N-(4-methylpyrimidin-2-yl)-4-(1H-pyrazol-4-yl)thiazol-2-amine], the EC50 in data set [1] was less than 0.1 µM.
